Data on one compound can be found in patent US20160332972A1, “UREA HYDANTOIN DERIVATIVES AS FORMYL PEPTIDE MODULATORS” (ALLERGAN, INC., priority 2014, published 2016).

The assay concerns the target T1, FPR2 (Homo sapiens, UniProt P25090).
T1 construct: expressed in transfected cells
T1 sequence (P25090 1-351): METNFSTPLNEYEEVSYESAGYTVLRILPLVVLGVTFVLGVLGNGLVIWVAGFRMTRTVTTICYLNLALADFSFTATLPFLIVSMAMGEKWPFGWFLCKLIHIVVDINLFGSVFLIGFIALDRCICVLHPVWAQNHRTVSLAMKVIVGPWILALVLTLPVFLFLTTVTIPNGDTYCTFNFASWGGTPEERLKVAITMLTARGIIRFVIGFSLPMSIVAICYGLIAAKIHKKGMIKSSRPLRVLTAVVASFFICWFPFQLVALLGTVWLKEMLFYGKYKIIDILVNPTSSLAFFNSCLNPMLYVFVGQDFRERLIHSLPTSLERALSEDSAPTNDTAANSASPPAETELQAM
The assay can be described thus: FLIPR Tetra calcium activity assay in CHO-Gα16 cells stably expressing FPR2. The class given is cell-based. The protocol: CHO-Gα16 cells stably expressing FPR2 were cultured in F12 media (10% FBS, 1% PSA, 400 μg/ml geneticin and 50 μg/ml hygromycin). In general, the day before the experiment, 18,000 cells/well were plated in a 384-well clear bottom poly-D-lysine coated plate. The following day the screening compound-induced calcium activity was assayed on a FLIPR^Tetra. The drug plates were prepared in 384-well microplates using EP3 and MultiPROBE robotic liquid handling systems. Compounds were tested at concentrations ranging from 0.61 to 10,000 nM. Results are expressed as EC50 (nM) and % efficacy values.

Molecules are shown by their SMILES.

Consider `CCOC(=O)CCNCCC1(CC)NC(=O)N(NC(=O)Nc2ccc(Br)cc2)C1=O` (centres unmarked) [Compound 1, Ethyl 3-{[2-(1-{[(4-Bromophenyl)carbamoyl]amino}-4-ethyl-2,5-dioxoimidazolidin-4-yl)ethyl]amino}propanoate], for which the “FPR2 Gα16-CHO (% eff)” value (% efficacy, calcium activity) is listed as “(0.97) %”. Further, the concentration for a half-maximal effect (EC50) (usually the concentration at which the effect is half-maximal) (compound-induced calcium activity, tested at 0.61 to 10,000 nM) turned out to be 49 nM.
